Measured values from US10100055B2, “Imidazopyrroloquinoline salt, method for producing the same, medicament, cosmetic, and food” (Mitsubishi Gas Chemical Company, Inc., priority 2016, dated 2018).

Assays:
[1] = test system: Human uterine cancer cells (HeLa cells); experiment: Cell activity test (cell counting kit 8); assay type: cell-based; design: number of the human uterine cancer cells (number without sample taken to be 100): dose or concentration left out as unconfirmed
Protocol: Human uterine cancer cells (HeLa cells) were cultured in an incubator at a 5%-CO2 concentration and at 37° C. Thereafter, the human uterine cancer cells were inoculated to 96 wells so as to become 1000 cells/well, and cultured for one night. Then, a suspension in which the sample of Example 1 was suspended in a phosphate buffer so as to become 1 g/L was used and added so as to become […]. After 2 days, by using a “cell counting kit 8” (trade name, manufactured by Dojindo Laboratories), the number of the human uterine cancer cells was measured. When the number of the human uterine cancer cells 2 days after the culture for one night when the sample of Example 1 was not added was taken to be 100, the number of the cells when the sample of Example 1 in […] was used was 112.

[2] = Solubility in water or ethanol, by absorbance at 260 nm; assay type: physicochemical; conditions: thermodynamic from solid
Protocol: The resultants were allowed to stand at the following temperatures (23° C. or 50° C.) for 1 hour, and thereafter centrifuged, and filtered with a filter of 0.5 μm; […] at an absorption wavelength of 260 nm.

- solubility at 1 h ([2]; organic solvent or mixture, ethanol, 23° C.): 0.4 mg/mL
- solubility at 1 h ([2]; water, 23° C.): 37 mg/mL
- solubility at 1 h ([2]; water, 50° C.): 47 mg/mL
Compound: N=C(N)NCCCc1nc2c(=O)c3cc(C(=O)O)[nH]c3c3c(C(=O)O)cc(C(=O)O)n1c23 [Example 1, argIPQ disodium trihydrate]
- effect on cell proliferation (in words) [1]: functioned to advance the cell proliferation
- number of the human uterine cancer cells (number without sample taken to be 100) ([1]; after 2 days, control = 100): 112
